Experimental findings from PMC3016878 (Chembiochem : a European journal of chemical biology, 2010) are described below.

SMILES strings stand for the structures.

This test deals with AAC(3)-IV; AAC(3) (Escherichia coli, UniProt Q306W4). Briefly: UV-vis acetyltransferase assay, Michaelis-Menten. It is filed as biochemical. The following applies: co-substrate apramycin.

For `CC(=O)SCCNC(=O)CCNC(=O)[C@H](O)C(C)(C)COP(=O)(O)OP(=O)(O)OC[C@H]1O[C@@H](n2cnc3c(N)ncnc32)[C@H](O)[C@@H]1OP(=O)(O)O` [AcCoA], the KM entry is “Michaelis-Menten plot for modification of apramycin by AcCoA and AzAcCoA”.
